For eleven compounds, MI0.5 and IC50 results are on record in ChEMBL document CHEMBL1125011, “Potential antimitotic agents. Synthesis of some ethyl benzopyrazin-7-ylcarbamates, ethyl pyrido[3,4-b]pyrazin-7-ylcarbamates, and ethyl pyrido[3,4-e]-as-triazin-7-ylcarbamates” (J Med Chem, 1990).

In test [1] the test system is L1210. Put plainly: (§1) Concentration that causes a mitotic index of 0.5 for cultured lymphoid leukemia L1210 cells was determined. Type of test: functional, Mus musculus.
Test [2] deals with L1210. Put plainly: Concentration required to inhibit 50% proliferation of cultured lymphoid leukemia L1210 cells was measured. The note with it: Mus musculus. It counts as functional, cell-based.
The nature of test [3]: as §1. Type of test: functional, Mus musculus.

As a reminder, the IC50 is the midpoint of a concentration-inhibition curve. Take `CCOC(=O)c1cc(N)c2c(c1)NCC(c1ccccc1)=N2`: in the test on L1210 [1], the MI0.5 is over 10 µM. This compound had an IC50 in the test on L1210 [2] of over 100 µM.

In the test with L1210 [1], `CCOC(=O)Nc1cc2nc(O)c(-c3ccccc3)nc2c(N)n1` came in with an MI0.5 of 0.022 µM. Further, in the test on L1210 [2], 0.042 µM corresponded to half-maximal inhibition (IC50). Take `CCOC(=O)Nc1cc2nnc(-c3ccccc3)nc2c(N)n1`: the IC50 in the test with L1210 [2] was over 10 µM. In the case of `COC(=O)Nc1cc(N)c2nc(-c3ccccc3)c(O)nc2c1`, the MI0.5 in test [3] was found to be 1.9 µM. In the test with L1210 [2], this compound showed a half-inhibitory concentration (IC50) of 0.75 µM. The compound `COC(=O)Nc1cc(N)c2nc(-c3ccccc3)cnc2c1` returned an IC50 in the test with L1210 [2] of over 100 µM. For `CCOC(=O)Nc1cc2ncc(-c3ccccc3)nc2c(N)n1`, the IC50 in the test with L1210 [2] stood at 0.3 µM. Same read-out and setting: under `COC(=O)Nc1cc(N)c2c(c1)NCC(c1ccccc1)=N2` stands 24 µM. For the compound `CCOC(=O)c1cc(N)c2nc(-c3ccccc3)cnc2c1`, the MI0.5 in the test with L1210 [1] was over 10 µM. This compound also returned an IC50 with L1210 [2] of over 100 µM. As for `CCOC(=O)Nc1cc2c(c(N)n1)NC(c1ccccc1)=NN2`, the half-maximal inhibitory concentration (IC50) in the test with L1210 [2] was over 10 µM. The same measure, in the same setting: in the case of `CCOC(=O)Nc1cc2nc(N)c(-c3ccccc3)nc2c(N)n1` it was over 30 µM. In turn, `CCOC(=O)Nc1cc2c(c(N)n1)N=C(c1ccccc1)CN2` came in with an MI0.5 in test [3] of 0.0028 µM.
